pIC50: −log10 of the molar value. In brackets after ≈: the same amount, converted by molar mass. Where two headings read alike, the source gives them in different places.
What was measured:
[1] = biological target: human (hACC2) (Homo sapiens, UniProt O00763); assay: In vitro ACC inhibition assay (ADP-Glo), hACC2; assay type: biochemical; conditions: 5 nM ACC2, 20 μM ATP, 20 μM acetyl-CoA
Description: The detailed procedure is as follows. […] 10 μL ADP glo reagent was added. […] 20 μL kinase detection reagent was added.

[2] = test system: C. albicans; assay: Antifungal Activity Assay (broth microtiter MIC), C. albicans; assay type: cell-based, Candida albicans; conditions: Candida albicans, ATCC90028, 48 h
In short: (§1)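 Endpoint: lowest concentration visibly inhibiting growth relative to control after 48 h. Inoculum of 2.5×10^3 CFU/mL final in RPMI 1640+MOPS, prepared from overnight 35° C agar cultures; test compounds diluted in water to 128 μg/mL before plating.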

[3] = test system: C. krusei; assay: Antifungal Activity Assay (broth microtiter MIC), C. krusei; assay type: cell-based, Candida krusei; conditions: Pichia kudriavzevii, ATCC6258, 48 h
In short: as §1

[4] = test system: C. parapsilosis; assay: Antifungal Activity Assay (broth microtiter MIC), C. parapsilosis; assay type: cell-based, Candida parapsilosis; conditions: Lodderomyces parapsilosis, ATCC22019, 48 h
In short: as §1

[5] = test system: Botrtyis cinerea (Bc); assay: Growth inhibition assay of fungal pathogens, Bc; assay type: cell-based; conditions: 48 h
In short: (§2)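 Spore suspension in 17% V8 liquid media; cpd final 50/10/2 or 2/0.4/0.08 ppm, 2% DMSO. OD600 + visual, 24 & 48 h; % inhibition at 48 h vs 2% DMSO ctrl.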

[6] = test system: Diplodia maydis (Dm); assay: Growth inhibition assay of fungal pathogens, Dm; assay type: cell-based; conditions: Stenocarpella maydis, 48 h
In short: as §2

[7] = test system: Fusarium virguliforme (Fv); assay: Growth inhibition assay of fungal pathogens, Fv; assay type: cell-based; conditions: 48 h
In short: as §2

[8] = test system: Phytophthora capsici (Pc); assay: Growth inhibition assay of fungal pathogens, Pc; assay type: cell-based; conditions: 48 h
In short: as §2

[9] = test system: Rhizoctonia solani (Rs); assay: Growth inhibition assay of fungal pathogens, Rs; assay type: cell-based; conditions: 48 h
[10] = biological target: fungal (fACC2) (UniProt Q00955); conditions: read-out: fACC2 (in vitro ACC2 Inhibition Assay, IC50), ADP-Glo, 5 nM ACC2, 20 μM ATP, 20 μM acetyl-CoA
[11] = Table 3a, ATCC 90028, 3 replicates, MIC recorded at 48 h, read-out: MIC, C. albicans ATCC 90028
[12] = Table 3b (additional results), ATCC 90028, 3 replicates, MIC recorded at 48 h, read-out: MIC, C. albicans ATCC 90028
[13] = Table 3a, ATCC 6258, 3 replicates, MIC recorded at 48 h, read-out: MIC, C. krusei ATCC 6258
[14] = Table 3b (additional results), ATCC 6258, 3 replicates, MIC recorded at 48 h, read-out: MIC, C. krusei ATCC 6258
[15] = Table 3a, ATCC 22019, 3 replicates, MIC recorded at 48 h, read-out: MIC, C. parapsilosis ATCC 22019
[16] = Table 3b (additional results), ATCC 22019, 3 replicates, MIC recorded at 48 h, read-out: MIC, C. parapsilosis ATCC 22019
[17] = Botrtyis cinerea, growth inhibition at 48 hours vs 2% DMSO control, read-out: Concentration at 90% Inhibition Bc
[18] = Botrtyis cinerea, growth inhibition vs 2% DMSO control at 48 hours, read-out: Concentration at 90% Inhibition Bc
[19] = Diplodia maydis, growth inhibition at 48 hours vs 2% DMSO control, read-out: Concentration at 90% Inhibition Dm
[20] = Diplodia maydis, growth inhibition vs 2% DMSO control at 48 hours, read-out: Concentration at 90% Inhibition Dm
[21] = growth inhibition at 48 hours vs 2% DMSO control, read-out: Concentration at 90% Inhibition Fv
[22] = growth inhibition vs 2% DMSO control at 48 hours, read-out: Concentration at 90% Inhibition Fv
[23] = growth inhibition at 48 hours vs 2% DMSO control, read-out: Concentration at 90% Inhibition Pc
[24] = growth inhibition vs 2% DMSO control at 48 hours, read-out: Concentration at 90% Inhibition Pc
[25] = mycelial plugs, growth inhibition at 48 hours vs 2% DMSO control, read-out: Concentration at 90% Inhibition Rs
[26] = mycelial plugs, growth inhibition vs 2% DMSO control at 48 hours, read-out: Concentration at 90% Inhibition Rs
[27] = read-out: MIC, C. albicans ATCC 90028, Table 3a, 3 replicates, MIC recorded at 48 h
[28] = read-out: MIC, C. albicans ATCC 90028, Table 3b (additional results), 3 replicates, MIC recorded at 48 h
[29] = read-out: MIC, C. krusei ATCC 6258, Table 3a, 3 replicates, MIC recorded at 48 h
[30] = read-out: MIC, C. krusei ATCC 6258, Table 3b (additional results), 3 replicates, MIC recorded at 48 h
[31] = read-out: MIC, C. parapsilosis ATCC 22019, Table 3a, 3 replicates, MIC recorded at 48 h
[32] = read-out: MIC, C. parapsilosis ATCC 22019, Table 3b (additional results), 3 replicates, MIC recorded at 48 h
[33] = read-out: Concentration at 90% Inhibition Bc, Botrtyis cinerea, growth inhibition at 48 hours vs 2% DMSO control
[34] = read-out: Concentration at 90% Inhibition Bc, Botrtyis cinerea, growth inhibition vs 2% DMSO control at 48 hours
[35] = read-out: Concentration at 90% Inhibition Dm, Diplodia maydis, growth inhibition at 48 hours vs 2% DMSO control
[36] = read-out: Concentration at 90% Inhibition Dm, Diplodia maydis, growth inhibition vs 2% DMSO control at 48 hours
[37] = read-out: Concentration at 90% Inhibition Fv, Fusarium virguliforme, growth inhibition at 48 hours vs 2% DMSO control
[38] = read-out: Concentration at 90% Inhibition Fv, Fusarium virguliforme, growth inhibition vs 2% DMSO control at 48 hours
[39] = read-out: Concentration at 90% Inhibition Pc, Phytophthora capsici, growth inhibition at 48 hours vs 2% DMSO control
[40] = read-out: Concentration at 90% Inhibition Pc, Phytophthora capsici, growth inhibition vs 2% DMSO control at 48 hours
[41] = read-out: Concentration at 90% Inhibition Rs, Rhizoctonia solani, mycelial plugs, growth inhibition at 48 hours vs 2% DMSO control
[42] = read-out: Concentration at 90% Inhibition Rs, Rhizoctonia solani, mycelial plugs, growth inhibition vs 2% DMSO control at 48 hours

Chain of fungal (fACC2) (Q00955 whole entry): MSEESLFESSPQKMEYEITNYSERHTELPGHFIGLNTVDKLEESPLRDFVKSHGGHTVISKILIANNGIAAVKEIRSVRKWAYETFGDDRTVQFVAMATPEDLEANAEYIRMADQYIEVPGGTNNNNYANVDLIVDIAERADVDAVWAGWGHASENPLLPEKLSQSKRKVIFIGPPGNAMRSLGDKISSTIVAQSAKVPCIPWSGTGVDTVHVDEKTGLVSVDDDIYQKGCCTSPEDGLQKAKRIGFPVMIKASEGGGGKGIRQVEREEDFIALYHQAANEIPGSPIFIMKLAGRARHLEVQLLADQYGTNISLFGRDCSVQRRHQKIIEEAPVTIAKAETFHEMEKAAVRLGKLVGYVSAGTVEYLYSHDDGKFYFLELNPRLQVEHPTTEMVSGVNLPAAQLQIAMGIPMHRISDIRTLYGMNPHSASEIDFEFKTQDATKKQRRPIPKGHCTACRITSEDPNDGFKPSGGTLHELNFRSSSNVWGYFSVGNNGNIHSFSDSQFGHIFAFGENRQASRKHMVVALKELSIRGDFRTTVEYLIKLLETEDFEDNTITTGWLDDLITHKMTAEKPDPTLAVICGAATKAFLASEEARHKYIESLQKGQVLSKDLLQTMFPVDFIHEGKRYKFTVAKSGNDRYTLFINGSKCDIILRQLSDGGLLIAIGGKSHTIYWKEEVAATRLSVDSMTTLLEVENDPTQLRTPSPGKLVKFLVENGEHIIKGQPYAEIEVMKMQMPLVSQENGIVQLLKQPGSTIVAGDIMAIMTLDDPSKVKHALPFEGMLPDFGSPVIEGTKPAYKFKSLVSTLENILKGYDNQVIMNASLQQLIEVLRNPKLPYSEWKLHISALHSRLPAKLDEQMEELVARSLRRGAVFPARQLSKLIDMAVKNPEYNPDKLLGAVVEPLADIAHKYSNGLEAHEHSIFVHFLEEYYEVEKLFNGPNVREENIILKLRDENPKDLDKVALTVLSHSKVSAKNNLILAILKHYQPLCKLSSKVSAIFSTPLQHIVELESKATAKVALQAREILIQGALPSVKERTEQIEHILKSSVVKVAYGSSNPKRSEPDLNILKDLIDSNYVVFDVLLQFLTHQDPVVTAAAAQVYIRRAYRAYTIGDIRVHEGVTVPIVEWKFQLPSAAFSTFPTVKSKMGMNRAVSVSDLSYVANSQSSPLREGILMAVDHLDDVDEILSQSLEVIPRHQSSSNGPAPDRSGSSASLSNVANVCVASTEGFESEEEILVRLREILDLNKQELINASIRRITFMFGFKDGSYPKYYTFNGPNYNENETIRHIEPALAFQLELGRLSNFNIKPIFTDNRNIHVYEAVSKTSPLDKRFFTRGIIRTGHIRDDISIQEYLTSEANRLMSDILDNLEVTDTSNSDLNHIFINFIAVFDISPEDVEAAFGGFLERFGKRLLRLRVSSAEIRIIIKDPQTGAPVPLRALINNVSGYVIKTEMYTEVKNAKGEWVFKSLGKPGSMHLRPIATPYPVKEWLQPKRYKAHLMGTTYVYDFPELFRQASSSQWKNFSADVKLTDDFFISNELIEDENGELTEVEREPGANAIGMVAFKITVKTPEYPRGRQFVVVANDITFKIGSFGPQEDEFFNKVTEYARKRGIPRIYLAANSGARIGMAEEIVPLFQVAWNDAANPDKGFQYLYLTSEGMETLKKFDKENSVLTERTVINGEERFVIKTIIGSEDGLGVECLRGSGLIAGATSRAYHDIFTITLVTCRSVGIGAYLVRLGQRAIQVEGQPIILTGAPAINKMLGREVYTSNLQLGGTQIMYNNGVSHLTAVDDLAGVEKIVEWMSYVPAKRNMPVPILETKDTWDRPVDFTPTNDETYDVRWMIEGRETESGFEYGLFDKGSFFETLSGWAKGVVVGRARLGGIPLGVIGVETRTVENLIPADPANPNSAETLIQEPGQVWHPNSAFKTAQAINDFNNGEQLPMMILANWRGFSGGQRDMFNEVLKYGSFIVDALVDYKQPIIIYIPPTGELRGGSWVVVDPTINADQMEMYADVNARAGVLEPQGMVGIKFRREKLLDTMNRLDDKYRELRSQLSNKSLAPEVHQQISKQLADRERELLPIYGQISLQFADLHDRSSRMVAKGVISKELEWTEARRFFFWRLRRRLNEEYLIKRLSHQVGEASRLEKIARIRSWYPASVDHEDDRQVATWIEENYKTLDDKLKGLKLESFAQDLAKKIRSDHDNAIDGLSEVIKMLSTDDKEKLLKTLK
Chain of human (hACC2) (O00763 whole entry): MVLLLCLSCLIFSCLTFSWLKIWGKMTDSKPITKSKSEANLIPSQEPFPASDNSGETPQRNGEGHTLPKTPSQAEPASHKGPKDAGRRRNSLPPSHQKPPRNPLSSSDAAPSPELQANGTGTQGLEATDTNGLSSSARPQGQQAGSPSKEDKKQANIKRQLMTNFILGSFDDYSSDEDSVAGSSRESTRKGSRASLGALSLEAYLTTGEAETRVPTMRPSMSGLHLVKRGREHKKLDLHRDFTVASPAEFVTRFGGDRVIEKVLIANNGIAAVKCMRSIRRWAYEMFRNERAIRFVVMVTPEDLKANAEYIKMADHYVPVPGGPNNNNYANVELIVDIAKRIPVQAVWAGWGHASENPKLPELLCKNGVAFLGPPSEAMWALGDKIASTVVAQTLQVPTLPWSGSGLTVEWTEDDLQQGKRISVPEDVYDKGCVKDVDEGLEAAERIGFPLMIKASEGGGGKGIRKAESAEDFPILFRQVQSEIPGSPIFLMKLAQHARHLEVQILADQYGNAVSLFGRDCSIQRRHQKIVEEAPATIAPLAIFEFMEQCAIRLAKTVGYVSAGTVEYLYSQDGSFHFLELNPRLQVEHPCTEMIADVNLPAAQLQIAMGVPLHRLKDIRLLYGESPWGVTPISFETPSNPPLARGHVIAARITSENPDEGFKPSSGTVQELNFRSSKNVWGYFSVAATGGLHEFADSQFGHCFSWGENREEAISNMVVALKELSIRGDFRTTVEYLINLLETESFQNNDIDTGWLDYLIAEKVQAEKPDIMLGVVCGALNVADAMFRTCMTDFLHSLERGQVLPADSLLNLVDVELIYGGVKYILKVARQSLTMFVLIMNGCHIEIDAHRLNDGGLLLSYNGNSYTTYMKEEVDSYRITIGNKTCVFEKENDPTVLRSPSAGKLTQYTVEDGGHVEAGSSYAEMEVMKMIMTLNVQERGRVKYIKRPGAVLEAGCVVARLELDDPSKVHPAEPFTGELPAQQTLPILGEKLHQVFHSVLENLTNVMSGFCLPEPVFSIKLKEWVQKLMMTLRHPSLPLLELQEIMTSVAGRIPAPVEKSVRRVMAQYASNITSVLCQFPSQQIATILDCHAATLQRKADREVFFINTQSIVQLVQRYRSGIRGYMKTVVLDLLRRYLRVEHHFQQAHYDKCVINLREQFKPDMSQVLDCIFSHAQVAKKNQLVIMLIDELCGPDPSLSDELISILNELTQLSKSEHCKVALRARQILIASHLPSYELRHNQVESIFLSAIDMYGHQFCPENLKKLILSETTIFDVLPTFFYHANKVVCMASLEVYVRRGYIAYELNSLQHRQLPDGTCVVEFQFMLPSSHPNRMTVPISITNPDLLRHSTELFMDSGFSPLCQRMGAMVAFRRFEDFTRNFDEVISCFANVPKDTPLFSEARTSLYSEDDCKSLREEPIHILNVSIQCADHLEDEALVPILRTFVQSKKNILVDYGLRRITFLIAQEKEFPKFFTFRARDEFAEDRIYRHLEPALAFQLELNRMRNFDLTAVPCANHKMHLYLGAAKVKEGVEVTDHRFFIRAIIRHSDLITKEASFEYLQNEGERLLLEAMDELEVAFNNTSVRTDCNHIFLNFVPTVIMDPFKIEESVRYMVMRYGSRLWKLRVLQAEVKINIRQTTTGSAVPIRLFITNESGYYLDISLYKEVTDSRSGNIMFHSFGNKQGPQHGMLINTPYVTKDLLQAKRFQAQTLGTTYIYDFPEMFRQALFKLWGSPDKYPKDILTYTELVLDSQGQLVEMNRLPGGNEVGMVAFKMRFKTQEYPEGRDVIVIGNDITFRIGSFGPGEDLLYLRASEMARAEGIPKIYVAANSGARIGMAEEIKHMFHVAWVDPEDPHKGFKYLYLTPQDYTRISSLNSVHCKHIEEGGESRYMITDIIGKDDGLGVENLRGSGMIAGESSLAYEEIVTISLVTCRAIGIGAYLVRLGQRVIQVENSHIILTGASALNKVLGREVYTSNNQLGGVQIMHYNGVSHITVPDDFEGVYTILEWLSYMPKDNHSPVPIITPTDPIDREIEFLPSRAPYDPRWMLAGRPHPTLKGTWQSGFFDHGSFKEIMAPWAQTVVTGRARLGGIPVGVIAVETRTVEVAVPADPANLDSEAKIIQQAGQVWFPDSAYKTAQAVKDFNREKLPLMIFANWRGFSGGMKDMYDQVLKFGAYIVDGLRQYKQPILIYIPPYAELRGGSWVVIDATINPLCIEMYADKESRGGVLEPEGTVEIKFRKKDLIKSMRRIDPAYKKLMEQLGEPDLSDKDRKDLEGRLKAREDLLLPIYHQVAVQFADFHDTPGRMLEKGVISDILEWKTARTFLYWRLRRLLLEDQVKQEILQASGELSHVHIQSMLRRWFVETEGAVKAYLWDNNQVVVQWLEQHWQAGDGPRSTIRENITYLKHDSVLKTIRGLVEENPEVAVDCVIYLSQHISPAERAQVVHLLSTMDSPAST

| Structure (SMILES) | pIC50 ([1]; Table 2a) | pIC50 ([1]; Table 2b, additional results) | MIC [2, 11] [µg/mL] | MIC [2, 12] [µg/mL] | MIC [3, 13] [µg/mL] | MIC [3, 14] [µg/mL] | MIC [4, 15] [µg/mL] | MIC [4, 16] [µg/mL] | IC90 [5, 17] [µg/mL] | IC90 [5, 18] [µg/mL] | IC90 [6, 19] [µg/mL] | IC90 [6, 20] [µg/mL] | IC90 [7, 21] [µg/mL] | IC90 [7, 22] [µg/mL] | IC90 [8, 23] [µg/mL] | IC90 [8, 24] [µg/mL] | IC90 [9, 25] [µg/mL] | IC90 [9, 26] [µg/mL] | pIC50 ([10]; Table 2a) | pIC50 ([10]; Table 2b, additional results) | other results |
| --- | --- | --- | --- | --- | --- | --- | --- | --- | --- | --- | --- | --- | --- | --- | --- | --- | --- | --- | --- | --- | --- |
| COc1ccc(F)cc1[C@H](Cn1c(=O)n(C(C)(C)C(=O)NC2CCC2)c(=O)c2c(C)c(-n3nccn3)sc21)OC1CCOCC1 [Compound I-27, (R)—N-cyclobutyl-2-(1-(2-(5-fluoro-2-methoxyphenyl)-2-((tetrahydro-2H-pyran-4-yl)oxy)ethyl)-5-methyl-2,4-dioxo-6-(2H-1,2,3-triazol-2-yl)-1,4-dihydrothieno[2,3-d]pyrimidin-3(2H)-yl)-2-methylpropanamide] | 8.00 to 8.30 | 8.00 to 8.30 | 0.25 to 1 (≈ 0.39 to 1.56 µM) | 0.25 to 1 (≈ 0.39 to 1.56 µM) | 0.06 to 0.24 (≈ 0.0936 to 0.375 µM) | 0.06 to 0.249 (≈ 0.0936 to 0.389 µM) | 0.25 to 1 (≈ 0.39 to 1.56 µM) | 0.25 to 1 (≈ 0.39 to 1.56 µM) | 0.4 (≈ 0.624 µM) | 0.4 (≈ 0.624 µM) | 0.4 (≈ 0.624 µM) | 0.4 (≈ 0.624 µM) | 0.4 (≈ 0.624 µM) | 0.4 (≈ 0.624 µM) | 10 (≈ 15.6 µM) | > 50 | 0.08 (≈ 0.125 µM) | 0.08 (≈ 0.125 µM) | 8.30 to 9.00 | 8.30 to 9.00 | – |
| COc1ccc(F)cc1[C@H](Cn1c(=O)n(C(C)(C)C(=O)NC2CCCCC2)c(=O)c2c(C)c(-n3nccn3)sc21)OC1CCOCC1 [Compound I-28, (R)—N-cyclohexyl-2-(1-(2-(5-fluoro-2-methoxyphenyl)-2-((tetrahydro-2H-pyran-4-yl)oxy)ethyl)-5-methyl-2,4-dioxo-6-(2H-1,2,3-triazol-2-yl)-1,4-dihydrothieno[2,3-d]pyrimidin-3(2H)-yl)-2-methylpropanamide] | 7.40 to 8.00 | 7.40 to 8.00 | – | – | – | – | – | – | – | – | – | – | – | – | – | – | – | – | 8.30 to 9.00 | 8.30 to 9.00 | MIC [2, 27]: 0.25 to 1 µg/mL (≈ 0.374 to 1.5 µM); MIC [2, 28]: 0.25 to 1 µg/mL (≈ 0.374 to 1.5 µM); MIC [3, 29]: 0.06 to 0.24 µg/mL (≈ 0.0897 to 0.359 µM); MIC [3, 30]: 0.06 to 0.249 µg/mL (≈ 0.0897 to 0.372 µM); MIC [4, 31]: 0.25 to 1 µg/mL (≈ 0.374 to 1.5 µM); MIC [4, 32]: 0.25 to 1 µg/mL (≈ 0.374 to 1.5 µM); IC90 [5, 33]: 0.4 µg/mL (≈ 0.598 µM); IC90 [5, 34]: 0.4 µg/mL (≈ 0.598 µM); IC90 [6, 35]: 0.4 µg/mL (≈ 0.598 µM); IC90 [6, 36]: 0.4 µg/mL (≈ 0.598 µM); IC90 [7, 37]: 0.4 µg/mL (≈ 0.598 µM); IC90 [7, 38]: 0.4 µg/mL (≈ 0.598 µM); IC90 [8, 39]: > 50 µg/mL; IC90 [8, 40]: > 50 µg/mL; IC90 [9, 41]: 0.4 µg/mL (≈ 0.598 µM); IC90 [9, 42]: 0.4 µg/mL (≈ 0.598 µM) |
| COc1ccc(F)cc1[C@H](Cn1c(=O)n(C(C)(C)C(=O)NCC(C)C)c(=O)c2c(C)c(-n3nccn3)sc21)OC1CCOCC1 [Compound I-29, (R)-2-(1-(2-(5-fluoro-2-methoxyphenyl)-2-((tetrahydro-2H-pyran-4-yl)oxy)ethyl)-5-methyl-2,4-dioxo-6-(2H-1,2,3-triazol-2-yl)-1,4-dihydro-thieno[2,3-d]pyrimidin-3(2H)-yl)-N-isobutyl-2-methylpropanamide] | 8.00 to 8.30 | 8.00 to 8.30 | 0.25 to 1 (≈ 0.389 to 1.56 µM) | 0.06 to 0.249 (≈ 0.0933 to 0.387 µM) | 0.06 to 0.24 (≈ 0.0933 to 0.373 µM) | 0.06 to 0.249 (≈ 0.0933 to 0.387 µM) | 0.25 to 1 (≈ 0.389 to 1.56 µM) | 0.25 to 1 (≈ 0.389 to 1.56 µM) | 0.4 (≈ 0.622 µM) | 0.4 (≈ 0.622 µM) | 0.4 (≈ 0.622 µM) | 0.4 (≈ 0.622 µM) | 0.4 (≈ 0.622 µM) | 0.4 (≈ 0.622 µM) | > 50 | > 50 | 2 (≈ 3.11 µM) | 2 (≈ 3.11 µM) | 8.30 to 9.00 | 8.30 to 9.00 | – |
| COc1ccc(F)cc1[C@H](Cn1c(=O)n(C(C)(C)C(=O)N2CCCCC2)c(=O)c2c(C)c(-n3nccn3)sc21)OC1CCC(=O)CC1 [Compound I-34, (R)-1-(2-(5-fluoro-2-methoxyphenyl)-2-((4-oxocyclohexyl)oxy)ethyl)-5-methyl-3-(2-methyl-1-oxo-1-(piperidin-1-yl)propan-2-yl)-6-(2H-1,2,3-triazol-2-yl)thieno[2,3-d]pyrimidine-2,4(1H,3H)-dione] | 8.00 to 8.30 | 8.00 to 8.30 | – | – | – | – | – | – | – | – | – | – | – | – | – | – | – | – | 8.30 to 9.00 | 8.30 to 9.00 | MIC [2, 27]: 0.25 to 1 µg/mL (≈ 0.375 to 1.5 µM); MIC [2, 28]: 0.25 to 1 µg/mL (≈ 0.375 to 1.5 µM); MIC [3, 29]: 0.25 to 1 µg/mL (≈ 0.375 to 1.5 µM); MIC [3, 30]: 1.01 to 2 µg/mL (≈ 1.51 to 3 µM); MIC [4, 31]: 0.25 to 1 µg/mL (≈ 0.375 to 1.5 µM); MIC [4, 32]: 0.25 to 1 µg/mL (≈ 0.375 to 1.5 µM); IC90 [5, 33]: 0.4 µg/mL (≈ 0.6 µM); IC90 [5, 34]: 0.4 µg/mL (≈ 0.6 µM); IC90 [6, 35]: 2 µg/mL (≈ 3 µM); IC90 [6, 36]: 2 µg/mL (≈ 3 µM); IC90 [7, 37]: 0.4 µg/mL (≈ 0.6 µM); IC90 [7, 38]: 0.4 µg/mL (≈ 0.6 µM); IC90 [8, 39]: > 50 µg/mL; IC90 [8, 40]: > 50 µg/mL; IC90 [9, 41]: 2 µg/mL (≈ 3 µM); IC90 [9, 42]: 2 µg/mL (≈ 3 µM) |
